Laboratory results as given in BindingDB's records for doi:10.1016/j.bmcl.2018.09.032 (Shionogi, 2018).
pIC50: −log10 of the molar value.

Experiment: Transrepression of RORgammat in anti-CD3/CD28 stimulated human PBMC derived CD4-positive T cells assessed as suppression of T cell differentiation to Th17 cells by measuring reduction in IL-17A level after 7 days by flow cytometry analysis

| pIC50 | Compound |
| --- | --- |
| 7.89 | CCS(=O)(=O)c1ccc(CC(=O)Nc2ccc(C(C)(C)C(=O)Nc3ccc(F)cc3F)c(F)c2)cc1 |
| 7.44 | CCS(=O)(=O)c1ccc(CC(=O)Nc2ccc(C(C)(C)C(=O)Nc3ccc(F)cc3F)cc2)cc1 |
